Read-outs that look alike come from different tables or passages of the source.
Assays:
PIM1 = PIM1 (Homo sapiens, UniProt P11309); assay: PIM1 inhibition; assay type: biochemical
[1] = Oral pharmacokinetic (PK) study (Quintara Discovery); assay type: in vivo; conditions: plasma, oral gavage 30 mg/kg
Excerpt: The in vivo anticancer activity displaying drug like properties also bears this out as shown in FIG. 9 and the corresponding example.

Huh7 cells [2] = assay: Huh7 tumor implantation in NGS mice, safety and efficacy; conditions: 30 mg/kg oral gavage, 5 times per week for 2 weeks
Excerpt: 1×10^7 Huh7 cells were implanted into NGS mice. When tumors reached ˜100 mm^3 after 14 days of tumor implantation, animals were divided into four groups (n=8 per group).

[3] = test system: Hepatocellular carcinoma, Neuroblastoma, and Mantle Cell lymphoma cell lines; assay: Percent viability versus concentration, comparison with Palbociclib and combination; assay type: cell-based
Method: The percent viability versus concentration experimental procedures for hepatocellular carcinoma cell lines, neuroblastoma cell lines, and Mantle cell lymphoma cell lines was performed as described in example 6, example 4, and example 5, respectively.

Jeko-1 = assay: Mantle cell lymphoma cell viability, AlamarBlue; assay type: cell-based
Method: (§1) Mantle cell lymphoma cell lines Granta, Mino and Jeko-1 were seeded at a density of 2500 cells/0.1 mL per well in a 96-well plate. Compounds 1 or Palbociclib were added post-plating at 50 μM-50 nM concentrations for 48 hours followed by addition of AlamarBlue® and incubation of plates at 37° C. in 5% CO2 for 6 hours. Fluorescence signals were read as emission at 590 nm after excitation at 560 nm. IC50 for each cell line was determined using Graphpad Prism software module.

Mino = assay: Mantle cell lymphoma cell viability, AlamarBlue; assay type: cell-based
Method: as §1

Granta = assay: Mantle cell lymphoma cell viability, AlamarBlue; assay type: cell-based
Method: as §1

DNA-PK = DNA-PK (Homo sapiens, UniProt P78527); assay: DNA-PK inhibition; assay type: biochemical
Mino and Granta cells = assay: Western blot PI3K and CDK4/cyclin D/Rb signaling in mantle cell lymphoma cells; assay type: cell-based; conditions: 24 hours
Excerpt: Cells were lysed in RIPA buffer and equal protein was loaded on SDS-PAGE gel followed by western blotting using p-AKT-Ser473, AKT, pRB-S780/811, RB, pP70S6K. β-actin served as loading control.

CDK4 = biological target: T1, CDK4 (Homo sapiens, UniProt P11802); assay: Cyclin dependent kinase inhibition (Reaction Biology Corp.); assay type: biochemical
T1 construct: Reaction Biology Corp., Malvern, PA (contract assay service)
T1 sequence (P11802 whole entry): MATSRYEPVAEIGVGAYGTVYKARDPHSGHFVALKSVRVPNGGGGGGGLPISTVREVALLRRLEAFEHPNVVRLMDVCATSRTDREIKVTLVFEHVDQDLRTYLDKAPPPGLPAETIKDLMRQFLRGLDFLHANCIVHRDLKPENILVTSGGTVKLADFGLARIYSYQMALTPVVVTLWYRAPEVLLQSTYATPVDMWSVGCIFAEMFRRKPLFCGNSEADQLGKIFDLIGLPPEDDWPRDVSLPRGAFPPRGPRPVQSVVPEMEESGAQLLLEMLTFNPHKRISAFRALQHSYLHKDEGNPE
T1 sequence (P24385 whole entry partner): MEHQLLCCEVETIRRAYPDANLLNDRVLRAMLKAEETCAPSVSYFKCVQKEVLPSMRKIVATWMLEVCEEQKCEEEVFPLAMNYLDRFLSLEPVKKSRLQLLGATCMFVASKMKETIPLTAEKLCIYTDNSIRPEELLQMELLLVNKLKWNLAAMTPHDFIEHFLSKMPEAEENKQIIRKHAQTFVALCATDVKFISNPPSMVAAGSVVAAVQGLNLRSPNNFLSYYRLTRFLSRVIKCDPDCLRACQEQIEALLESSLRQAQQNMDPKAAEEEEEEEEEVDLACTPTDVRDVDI
Method: (§2) PI3K-alpha, PI3K-beta, PI3K-gamma, and PI3K-delta inhibition activity was determined by Thermo Fisher Scientific-Biosciences Life Sciences Solutions, Madison, WI The bromodomain protein inhibition (binding domain 1 and 2 of BRD4) was determined by Reaction Biology Corp., Malvern, PA The cyclin dependent kinase inhibition on proteins such as CDK2, CDK4, CDK6, and CDK9 was determined by Reaction Biology Corp., Malvern, PA.
(§3) The compounds of the invention were characterized by their ability to inhibit the target proteins using third party vendors offering such services. PI3K-alpha, PI3K-gamma, and PI3K-delta inhibition activity was determined by Thermo Fisher Scientific-Biosciences Life Sciences Solutions, Madison, WI. […] NI=no inhibition detected up to 50 μM or IC50 not reached at 50 μM. ND=not done.

CDK6 = biological target: T2, CDK6 (Homo sapiens, UniProt Q00534); assay: as above; assay type: biochemical
T2 construct: Reaction Biology Corp., Malvern, PA (contract assay service)
T2 sequence (Q00534 whole entry): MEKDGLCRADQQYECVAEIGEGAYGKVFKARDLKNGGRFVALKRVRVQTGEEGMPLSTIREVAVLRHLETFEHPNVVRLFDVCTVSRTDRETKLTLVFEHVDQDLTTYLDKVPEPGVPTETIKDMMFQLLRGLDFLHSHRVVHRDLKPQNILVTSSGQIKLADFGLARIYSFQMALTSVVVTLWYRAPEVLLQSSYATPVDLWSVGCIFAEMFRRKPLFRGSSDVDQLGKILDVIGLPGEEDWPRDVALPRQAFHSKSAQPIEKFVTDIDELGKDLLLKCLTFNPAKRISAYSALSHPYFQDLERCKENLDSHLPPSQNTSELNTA
T2 sequence (P24385 whole entry partner): as the sequence (P24385 whole entry partner) above
Method: as §2, §3

PI3K-delta = biological target: T3, PI3K-delta (Homo sapiens, UniProt O00329); assay: PI3K inhibition (Thermo Fisher Scientific); assay type: biochemical; conditions: 10-point curve, grouped by potency; read-out: IC50 P13K δ
T3 construct: Thermo Fisher Scientific-Biosciences Life Sciences Solutions, Madison, WI (contract assay service)
T3 sequence (O00329 whole entry): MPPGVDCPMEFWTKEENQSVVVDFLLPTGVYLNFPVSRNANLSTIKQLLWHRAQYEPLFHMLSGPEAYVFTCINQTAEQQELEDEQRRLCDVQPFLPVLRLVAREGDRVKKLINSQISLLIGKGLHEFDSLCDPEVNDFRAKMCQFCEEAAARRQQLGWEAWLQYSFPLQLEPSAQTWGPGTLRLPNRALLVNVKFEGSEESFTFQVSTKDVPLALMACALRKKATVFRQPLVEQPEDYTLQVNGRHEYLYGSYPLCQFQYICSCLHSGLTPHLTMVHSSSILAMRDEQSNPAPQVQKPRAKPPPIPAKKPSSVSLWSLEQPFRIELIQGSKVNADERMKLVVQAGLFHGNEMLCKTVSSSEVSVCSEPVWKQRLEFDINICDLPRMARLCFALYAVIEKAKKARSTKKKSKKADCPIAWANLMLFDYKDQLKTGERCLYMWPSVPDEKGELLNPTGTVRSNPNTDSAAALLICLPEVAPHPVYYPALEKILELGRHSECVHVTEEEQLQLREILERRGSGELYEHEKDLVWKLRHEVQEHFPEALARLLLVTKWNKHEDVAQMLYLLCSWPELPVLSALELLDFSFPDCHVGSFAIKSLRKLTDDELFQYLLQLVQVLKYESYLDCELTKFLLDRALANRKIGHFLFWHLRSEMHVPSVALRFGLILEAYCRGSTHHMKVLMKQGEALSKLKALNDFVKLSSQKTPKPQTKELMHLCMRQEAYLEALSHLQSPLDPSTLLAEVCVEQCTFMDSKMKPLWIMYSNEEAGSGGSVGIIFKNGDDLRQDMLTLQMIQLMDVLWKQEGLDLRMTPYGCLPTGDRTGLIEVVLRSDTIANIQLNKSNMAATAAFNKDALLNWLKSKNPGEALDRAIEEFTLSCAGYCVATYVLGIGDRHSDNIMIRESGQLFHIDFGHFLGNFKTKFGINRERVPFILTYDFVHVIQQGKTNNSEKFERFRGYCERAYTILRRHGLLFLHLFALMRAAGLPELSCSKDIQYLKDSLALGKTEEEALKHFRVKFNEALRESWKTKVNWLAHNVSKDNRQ
T3 sequence (P27986 whole entry partner): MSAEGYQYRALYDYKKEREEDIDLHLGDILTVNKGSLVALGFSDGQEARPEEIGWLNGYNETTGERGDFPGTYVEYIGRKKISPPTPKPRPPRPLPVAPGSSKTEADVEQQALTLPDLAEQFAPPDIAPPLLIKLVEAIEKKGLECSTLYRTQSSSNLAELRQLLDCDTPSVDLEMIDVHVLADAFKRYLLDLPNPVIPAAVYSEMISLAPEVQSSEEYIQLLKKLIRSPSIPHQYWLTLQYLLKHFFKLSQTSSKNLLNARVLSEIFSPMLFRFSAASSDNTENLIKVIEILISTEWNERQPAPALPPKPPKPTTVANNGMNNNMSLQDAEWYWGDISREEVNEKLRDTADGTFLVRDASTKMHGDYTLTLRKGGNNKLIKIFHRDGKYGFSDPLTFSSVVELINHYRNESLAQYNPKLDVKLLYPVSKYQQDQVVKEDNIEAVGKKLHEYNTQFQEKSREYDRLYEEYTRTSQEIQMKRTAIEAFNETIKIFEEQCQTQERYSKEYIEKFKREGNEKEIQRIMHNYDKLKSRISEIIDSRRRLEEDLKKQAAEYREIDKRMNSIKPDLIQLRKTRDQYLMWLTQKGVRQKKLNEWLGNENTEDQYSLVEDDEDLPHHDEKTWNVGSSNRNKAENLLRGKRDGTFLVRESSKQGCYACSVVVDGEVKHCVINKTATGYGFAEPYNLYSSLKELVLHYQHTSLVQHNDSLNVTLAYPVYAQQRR
Method: as §2, §3

PI3K-gamma = biological target: T4, PI3K-gamma (Homo sapiens, UniProt P48736); assay: PI3K inhibition (Thermo Fisher Scientific); assay type: biochemical; conditions: 10-point curve, grouped by potency; read-out: IC50 P13K γ
T4 construct: Thermo Fisher Scientific-Biosciences Life Sciences Solutions, Madison, WI (contract assay service)
T4 sequence (P48736 whole entry): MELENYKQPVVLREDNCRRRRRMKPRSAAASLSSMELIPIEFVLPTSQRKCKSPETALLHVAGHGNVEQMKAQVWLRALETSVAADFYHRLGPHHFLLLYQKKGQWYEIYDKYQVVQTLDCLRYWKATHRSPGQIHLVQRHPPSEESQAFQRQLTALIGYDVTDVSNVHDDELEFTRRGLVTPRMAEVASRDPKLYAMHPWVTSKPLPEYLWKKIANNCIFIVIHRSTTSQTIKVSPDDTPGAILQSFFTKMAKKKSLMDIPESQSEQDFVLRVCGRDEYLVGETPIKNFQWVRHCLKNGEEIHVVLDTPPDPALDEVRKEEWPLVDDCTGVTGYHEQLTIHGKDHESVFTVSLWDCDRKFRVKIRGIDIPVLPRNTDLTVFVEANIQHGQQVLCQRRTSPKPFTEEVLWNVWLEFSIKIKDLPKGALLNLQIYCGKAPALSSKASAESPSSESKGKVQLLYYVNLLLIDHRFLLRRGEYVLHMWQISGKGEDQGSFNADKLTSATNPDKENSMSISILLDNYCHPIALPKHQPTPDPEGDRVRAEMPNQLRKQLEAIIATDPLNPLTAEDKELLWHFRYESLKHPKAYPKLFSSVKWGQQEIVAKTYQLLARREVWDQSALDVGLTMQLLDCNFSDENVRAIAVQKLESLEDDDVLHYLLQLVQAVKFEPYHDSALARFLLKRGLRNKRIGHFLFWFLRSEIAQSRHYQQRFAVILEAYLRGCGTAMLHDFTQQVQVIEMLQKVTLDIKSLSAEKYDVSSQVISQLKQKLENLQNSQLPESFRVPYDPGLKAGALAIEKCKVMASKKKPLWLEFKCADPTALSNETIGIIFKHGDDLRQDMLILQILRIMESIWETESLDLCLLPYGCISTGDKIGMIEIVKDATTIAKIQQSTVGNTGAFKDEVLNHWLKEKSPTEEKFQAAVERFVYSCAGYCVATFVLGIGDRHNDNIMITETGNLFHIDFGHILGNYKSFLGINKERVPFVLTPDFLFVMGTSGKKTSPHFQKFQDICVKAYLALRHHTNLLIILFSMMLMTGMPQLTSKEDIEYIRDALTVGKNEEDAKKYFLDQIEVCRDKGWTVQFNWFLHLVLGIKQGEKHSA
Method: as §2, §3

CHLA-255 = assay: Neuroblastoma cell viability, Alamar Blue; assay type: cell-based; conditions: Homo sapiens, 24 hours incubation
Method: (§4) IC50 for each cell line was determined using Graphpad Prism software module.

SMS-KNCR = assay: Neuroblastoma cell viability, Alamar Blue; assay type: cell-based; conditions: Homo sapiens, 24 hours incubation
Method: as §4

CHLA-136 = assay: Neuroblastoma cell viability, Alamar Blue; assay type: cell-based; conditions: Homo sapiens, 24 hours incubation
Method: as §4

Huh7 2H cell line = assay: Huh7 2H cell viability; assay type: cell-based; conditions: Homo sapiens, Huh-7, 2 h
Method: (§5) Cells were seeded into 96-well plate at 1×10^4 cell per well in complete medium+10% FCS and incubated for 24 hours prior to the addition of compounds at concentrations ranging from 50 μM to 50 nM. Cell viability was quantitated 24 hours after the addition of compounds using AlamarBlue® viable cell detection reagent. IC50 curves were determined using Graphpad Prism software.
The procedures of example 6 were followed except using the Huh7 2H cell line.

CDK9 = biological target: T5, CDK9 (Homo sapiens, UniProt P50750); assay: Cyclin dependent kinase inhibition (Reaction Biology Corp.); assay type: biochemical
T5 construct: Reaction Biology Corp., Malvern, PA (contract assay service)
T5 sequence (P50750 whole entry): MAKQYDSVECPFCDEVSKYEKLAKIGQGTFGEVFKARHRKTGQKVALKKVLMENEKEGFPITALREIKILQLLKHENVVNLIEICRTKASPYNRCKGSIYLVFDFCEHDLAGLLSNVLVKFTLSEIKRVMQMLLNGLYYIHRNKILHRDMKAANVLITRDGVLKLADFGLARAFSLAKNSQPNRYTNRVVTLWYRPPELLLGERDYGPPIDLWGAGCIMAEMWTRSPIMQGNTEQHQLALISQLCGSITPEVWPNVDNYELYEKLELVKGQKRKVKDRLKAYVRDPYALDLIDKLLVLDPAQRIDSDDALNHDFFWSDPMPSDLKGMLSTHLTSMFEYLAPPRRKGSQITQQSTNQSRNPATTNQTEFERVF
T5 sequence (O60563 whole entry partner): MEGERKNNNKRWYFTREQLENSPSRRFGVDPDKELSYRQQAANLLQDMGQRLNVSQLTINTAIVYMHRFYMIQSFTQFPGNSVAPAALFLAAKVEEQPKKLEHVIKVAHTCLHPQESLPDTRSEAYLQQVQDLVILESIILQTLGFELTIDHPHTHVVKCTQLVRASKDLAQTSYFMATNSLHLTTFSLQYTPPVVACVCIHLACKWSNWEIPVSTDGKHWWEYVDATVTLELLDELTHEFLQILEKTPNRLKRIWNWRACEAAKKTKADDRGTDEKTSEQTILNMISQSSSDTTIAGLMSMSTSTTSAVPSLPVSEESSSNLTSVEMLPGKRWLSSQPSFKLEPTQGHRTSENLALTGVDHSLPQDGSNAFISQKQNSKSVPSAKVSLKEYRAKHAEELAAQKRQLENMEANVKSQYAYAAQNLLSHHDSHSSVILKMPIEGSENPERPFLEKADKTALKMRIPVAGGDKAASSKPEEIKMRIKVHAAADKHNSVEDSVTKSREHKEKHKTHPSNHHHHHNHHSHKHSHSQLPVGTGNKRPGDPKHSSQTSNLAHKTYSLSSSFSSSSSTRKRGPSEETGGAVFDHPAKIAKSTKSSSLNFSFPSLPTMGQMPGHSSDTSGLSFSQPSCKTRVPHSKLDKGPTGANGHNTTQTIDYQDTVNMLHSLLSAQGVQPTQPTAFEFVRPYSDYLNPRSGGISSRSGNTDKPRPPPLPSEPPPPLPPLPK
Method: as §2

CDK2 = biological target: T6, CDK2 (Homo sapiens, UniProt P24941); assay: as above; assay type: biochemical
T6 construct: Reaction Biology Corp., Malvern, PA (contract assay service)
Method: as §2

Huh7 cells [4] = assay: Western blot signaling in IGF-1 stimulated Huh7 cells (p-AKT, pRB); assay type: cell-based; conditions: Huh7, serum starved, IGF-1 stimulation 30 min
Method: The hepatocellular carcinoma cell line, Huh7 was serum starved overnight in serum free medium. Cells were seeded into a 96 well tissue culture plate at 1×10^4 cells/well and pulsed with IGF-1 stimulation for 30 min at 37° C. at which time lysates were generated for SDS PAGE analysis. Western blot analysis was performed for p-AKT, AKT, pRB, RB and beta actin as loading control.

HepG2 = assay: Hepatocellular carcinoma cell viability, AlamarBlue; assay type: cell-based; conditions: Homo sapiens, 24 hours, read-out: Hepatocarcinoma Cell Line IC50 Values HepG2
Method: as §5

Huh7 = assay: as above; assay type: cell-based; conditions: Homo sapiens, Huh-7; 24 hours; read-out: Hepatocarcinoma Cell Line IC50 Values Huh7
Method: as §5

Hep3B = assay: as above; assay type: cell-based; conditions: Homo sapiens, 24 hours, read-out: Hepatocarcinoma Cell Line IC50 Values Hep3B
Method: as §5

[5] = 10-point curve, grouped by potency

Compound CN(C)C(=O)c1cc2cnc(Nc3ccc(-c4csc5c(=O)cc(N6CCOCC6)oc45)cc3)nc2n1C1CCCC1 [Compound 1, {1-Cyclopentyl-6-[p-(5-morpholino-7-oxo-4-oxa-1-thia-3-indenyl)phenylamino]-1,5,7-triaza-1H-inden-2-yl} (dimethylamino) formaldehyde] has an IC50 (PIM1) of 35 nM, a concentration at 24 h ([1]; 24 hours) of 63 nM and an AUC(0-inf) ([1]; Hot Rod Formulation Kit #8) of 3520 ng·h/mL. The Cmax ([1]; Hot Rod Formulation Kit #8) was 1400 nM, the Tmax ([1]; Hot Rod Formulation Kit #8) was 30 min and the half-life ([1]; Hot Rod Formulation Kit #8, read-out: T1/2 (half-life) (converted)) was 624 min. For the same compound, the “in vivo anticancer efficacy (Huh7 tumors)” value (Huh7 cells [2]) was “comparable to the efficacy of 3 separate cognate inhibitors”, the “cell viability compared with Palbociclib” value ([3]; Hepatocellular carcinoma, Neuroblastoma, Mantle Cell lymphoma cell lines (FIG. 8A-8C)) was “performed substantially better than Palbociclib” and the “cell viability compared with combination BKM120, JQ1, Palbociclib” value ([3]; hepatocellular carcinoma cells (FIG. 8D)) was “performed substantially better”. The IC50 (Jeko-1; Homo sapiens, JeKo-1, 48 hours, read-out: Mantle Cell Line IC50 Values Jeko-1) was 851 nM, the “times more potent than Palbociclib, Jeko-1” value (Jeko-1; ratio of IC50 values) was 8.7 times and the IC50 (Mino; Homo sapiens, MINO, 48 hours, read-out: Mantle Cell Line IC50 Values Mino) was 583 nM. For the same compound, the “times more potent than Palbociclib, Mino” value (Mino; ratio of IC50 values) was 82.1 times, the IC50 (Granta; 48 hours, read-out: Mantle Cell Line IC50 Values Granta) was 580 nM and the “times more potent than Palbociclib, Granta” value (Granta; ratio of IC50 values) was 17.7 times. The IC50 (DNA-PK) was 21 nM, the “PI3K-AKT signaling (p-AKT), Western blot” value (Mino and Granta cells) was “inhibits” and the “cyclin D/RB signaling (phosphorylation of RB), Western blot” value (Mino and Granta cells) was “inhibits”. For the same compound, the IC50 (CDK4) was under 2.54 nM, the IC50 (CDK4; [5]) was under 100 nM and the IC50 (CDK6) was 3.26 nM. It also gave an IC50 (CDK6; [5]) of under 100 nM, an IC50 (PI3K-delta) of under 100 nM and an IC50 (PI3K-gamma) of 1000 to 5000 nM. It also gave an IC50 (CHLA-255) of 385 nM, an IC50 (SMS-KNCR) of 962 nM and an IC50 (CHLA-136) of 4.5 µM. The IC50 (Huh7 2H cell line) was 495 nM, the IC50 (CDK9) was 2 nM and the IC50 (CDK2) was 500 nM. For the same compound, the “phosphorylation of CDK target RB (pRB), Western blot” value (Huh7 cells [4]) was “blocks phosphorylation”, the “phosphorylation of PI3K target AKT (p-AKT), Western blot” value (Huh7 cells [4]) was “blocks phosphorylation” and the IC50 (HepG2) was 4.2 µM. It also gave an IC50 (Huh7) of 550 nM and an IC50 (Hep3B) of 1100 nM.

From US11760762B2, “Thienopyranones and furanopyranones as kinase, bromodomain, and checkpoint inhibitors” (SignalRx Pharmaceuticals, Inc., priority 2017, dated 2023)
